{"source": "paper PMC4243815", "about": "“A non-pediocin low molecular weight antimicrobial peptide produced by Pediococcus pentosaceus strain IE-3 shows increased activity under reducing environment” (BMC Microbiology, 2014)", "key": {"M. luteus": {"system": "M. luteus", "format": "cell-based, Micrococcus luteus", "details": "16 h", "procedure": "The MIC was determined for various indicator strains using a microtiter plate dilution assay as described earlier. Cell growth was measured by observing OD at 600 nm at 16 h time interval using microtiter plate reader (Multiskan spectrum, Thermo, USA). The protein concentration was determined by BCA protein concentration estimation kit (Thermo, USA) following instructions of the manufacturer. For MIC determination of DTT treated peptide, the DTT solution was filter sterilized and final 100 mM concentration was used to treat peptide."}, "amylase": {"system": "amylase", "test": "Effect of amylase treatment on antimicrobial activity"}, "trypsin": {"system": "trypsin", "test": "Effect of proteolytic enzymes on antimicrobial activity", "details": "200 μg peptide; trypsin 10 μg/ml; 100 mM Tris HCl pH 8.0 with 10 mM CaCl2; 30°C, 6 h; read-out antimicrobial assay", "procedure": "The sensitivity of the bacteriocin towards different pH, temperatures and proteases was evaluated using purified bacteriocin. The purified peptide was incubated between pH values 2.0-10.0 and temperatures including 80, 100°C for 30 min and 120°C for 15 min. Antimicrobial peptide (200 μg) was incubated with various proteolytic enzymes such as trypsin (10 μg/ml, Sigma, USA), chymotrypsin (5 μg/ml, Sigma, USA) and proteinase K (5 units, Sigma, USA) in 100 mM Tris HCl buffer pH 8.0 (with 10 mM CaCl2) at 30°C for 6 h to determine their effect. The enzyme activity was terminated by heating the reaction mix at 80°C and subsequently used for antimicrobial activity assay. To test the effect of denaturant like DTT (BioRad, USA) on antimicrobial activity of the peptide, it was incubated with 50 to 150 mM DTT at room temperature for 1 h and used for growth inhibition assay. Hydrogen peroxide induced oxidation was tested by incubating the purified peptide with 100 mM concentration of hydrogen peroxide (Merck, India) for 1 h at room temperature and activity was tested by well diffusion assay."}, "proteinase K": {"molecular_target": "T1, proteinase K (Parengyodontium album, UniProt P06873)", "T1 construct": "purchased Sigma, USA", "T1 sequence (P06873 106-384)": "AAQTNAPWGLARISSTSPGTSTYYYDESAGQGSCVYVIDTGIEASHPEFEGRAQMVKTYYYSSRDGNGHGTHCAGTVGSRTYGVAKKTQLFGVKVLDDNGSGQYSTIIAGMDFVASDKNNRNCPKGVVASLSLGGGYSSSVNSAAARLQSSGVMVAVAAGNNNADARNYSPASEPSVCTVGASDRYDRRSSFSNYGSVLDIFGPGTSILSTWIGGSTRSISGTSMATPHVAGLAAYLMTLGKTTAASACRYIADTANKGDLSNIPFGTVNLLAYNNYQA", "test": "Effect of proteolytic enzymes on antimicrobial activity", "details": "200 μg peptide; proteinase K 5 units; 100 mM Tris HCl pH 8.0 with 10 mM CaCl2; 30°C, 6 h; read-out antimicrobial assay", "experimental": "(§1) The sensitivity of the bacteriocin towards different pH, temperatures and proteases was evaluated using purified bacteriocin. The purified peptide was incubated between pH values 2.0-10.0 and temperatures including 80, 100°C for 30 min and 120°C for 15 min. Antimicrobial peptide (200 μg) was incubated with various proteolytic enzymes such as trypsin (10 μg/ml, Sigma, USA), chymotrypsin (5 μg/ml, Sigma, USA) and proteinase K (5 units, Sigma, USA) in 100 mM Tris HCl buffer pH 8.0 (with 10 mM CaCl2) at 30°C for 6 h to determine their effect. The enzyme activity was terminated by heating the reaction mix at 80°C and subsequently used for antimicrobial activity assay. To test the effect of denaturant like DTT (BioRad, USA) on antimicrobial activity of the peptide, it was incubated with 50 to 150 mM DTT at room temperature for 1 h and used for growth inhibition assay. Hydrogen peroxide induced oxidation was tested by incubating the purified peptide with 100 mM concentration of hydrogen peroxide (Merck, India) for 1 h at room temperature [36] and activity was tested by well diffusion assay."}, "[1]": {"test": "Effect of pH on antimicrobial activity of the purified peptide", "format": "physicochemical", "experimental": "as §1"}, "[2]": {"test": "Hydrogen peroxide induced oxidation, activity by well diffusion assay", "format": "physicochemical", "details": "100 mM hydrogen peroxide, 1 h, room temperature", "experimental": "as §1"}, "[3]": {"test": "Storage stability of the purified peptide", "format": "physicochemical"}, "[4]": {"test": "Effect of DTT on antimicrobial activity of the purified peptide", "details": "1 h/RT, growth inhibition assay", "experimental": "as §1"}, "[5]": {"system": "pepsin, trypsin, chymotrypsin, proteinase K and pronase E", "details": "cited from earlier work", "excerpt": "Bacteria produces different kinds of antimicrobial substances including ribosomally synthesized bacteriocins and non-ribosomally synthesized antibiotics or lipopeptides as a part of their defense strategies in complex environments such as fermented foods and the human gut. Members belonging to the lactic acid bacteria (LAB) family with ability to produce bacteriocins are frequently found in these environments. LAB strains are recognized as GRAS (Generally Regarded As Safe) microorganisms and have been studied in detail for biotechnological applications together with the bacteriocins prod ..."}}, "note": "Ends that are not written are not given here. Peptide text beside a SMILES is read from it."}
{"molecule": "CC(C)C[C@H](NC(=O)[C@H](Cc1c[nH]cn1)NC(=O)[C@@H](NC(=O)[C@H](CC(C)C)NC(=O)[C@H](CS)NC(=O)CNC(=O)[C@H](CCCNC(=N)N)NC(=O)[C@@H](NC(=O)[C@H](CS)NC(=O)[C@H](CO)NC(=O)[C@H](Cc1ccccc1)NC(=O)[C@@H]1CCCN1C(=O)[C@@H](NC(=O)[C@@H]1CCCN1C(=O)[C@H](C)N)C(C)C)[C@@H](C)O)[C@@H](C)O)C(=O)N[C@H](C(=O)O)C(C)C", "note": "[LMW peptide] (H-APVPFSCTRGCLTHLV-OH; N-terminus and C-terminus assumed)", "values": [{"measurement": "MIC", "setting": "M. luteus", "result": 6.3, "unit": "µM"}, {"measurement": "Antimicrobial activity upon treatment with amylase", "setting": "amylase", "result": "Stable activity"}, {"measurement": "Antimicrobial activity after incubation with proteolytic enzyme", "setting": "trypsin", "result": "no reduction in activity"}, {"measurement": "Antimicrobial activity after incubation with proteolytic enzyme", "setting": "proteinase K", "result": "no reduction in activity"}, {"measurement": "Residual activity (%)", "setting": "[1]; pH 2, Overnight/ RT", "result": 100.0, "unit": "%"}, {"measurement": "Residual activity (%)", "setting": "[1]; pH 3, Overnight/ RT", "result": 100.0, "unit": "%"}, {"measurement": "Residual activity (%)", "setting": "[1]; pH 4, Overnight/ RT", "result": 100.0, "unit": "%"}, {"measurement": "Residual activity (%)", "setting": "[1]; pH 5, Overnight/ RT", "result": 100.0, "unit": "%"}, {"measurement": "Residual activity (%)", "setting": "[1]; pH 6, Overnight/ RT", "result": 87.5, "unit": "%"}, {"measurement": "Residual activity (%)", "setting": "[1]; pH 7, Overnight/ RT", "result": 75.0, "unit": "%"}, {"measurement": "Residual activity (%)", "setting": "[1]; pH 8, Overnight/ RT", "result": 37.5, "unit": "%"}, {"measurement": "Residual activity (%)", "setting": "[1]; pH 9, Overnight/ RT", "result": 25.0, "unit": "%"}, {"measurement": "Residual activity (%)", "setting": "[1]; pH 10, Overnight/ RT", "result": 12.5, "unit": "%"}, {"measurement": "Antimicrobial activity after incubation with H2O2", "setting": "[2]", "result": "did not show any antimicrobial activity"}, {"measurement": "Antimicrobial activity during storage", "setting": "[3]; purified peptide stored at room temperature, within 24 h", "result": "significant reduction in antimicrobial activity"}, {"measurement": "Antimicrobial activity during storage", "setting": "[3]; purified peptide stored at −20°C", "result": "stable"}, {"measurement": "Residual activity (%)", "setting": "[4]; DTT 0 mM", "result": 100.0, "unit": "%"}, {"measurement": "Residual activity (%)", "setting": "[4]; DTT 50 mM", "result": 125.0, "unit": "%"}, {"measurement": "Residual activity (%)", "setting": "[4]; DTT 100 mM", "result": 143.7, "unit": "%"}, {"measurement": "Residual activity (%)", "setting": "[4]; DTT 150 mM", "result": 143.7, "unit": "%"}]}
{"molecule": "pediocin PA-1: well-studied 4.6 kDa class IIa antimicrobial peptide (bacteriocin) from Pediococcus sp. (KYYGNGVTCGKHSCSVDWGKATTCIINNGAMAWATGGHQGNHKC; ends and bridges not checked; cysteine pairing not given here; UniProt P29430 19-62, looked up)", "values": [{"measurement": "Effect of proteases on activity", "setting": "[5]", "result": "inactivated"}]}
